Test: xn = mol fraction of the nth substance listed
Settings: Liquid, Constant-volume piezometry

CCO [ethanol] + O
Settings | mass density [kg/m3]
292.95 K, 2450 kPa, x1 = 0.073 | 974.2
292.95 K, 11320 kPa, x1 = 0.073 | 977.6
292.95 K, 21120 kPa, x1 = 0.073 | 981.2
292.95 K, 30930 kPa, x1 = 0.073 | 985
292.95 K, 39230 kPa, x1 = 0.073 | 988
297.05 K, 2490 kPa, x1 = 0.0163 | 990.8
297.05 K, 11280 kPa, x1 = 0.0163 | 993.5
297.05 K, 21070 kPa, x1 = 0.0163 | 997.5
297.05 K, 30810 kPa, x1 = 0.0163 | 1003.2
297.05 K, 39170 kPa, x1 = 0.0163 | 1006.1
298.15 K, 2560 kPa, x1 = 0.0946 | 965.8
298.15 K, 10120 kPa, x1 = 0.0946 | 968.6
298.15 K, 20060 kPa, x1 = 0.0946 | 972.4
298.15 K, 29980 kPa, x1 = 0.0946 | 976.1
298.15 K, 40030 kPa, x1 = 0.0946 | 979.8
298.35 K, 2590 kPa, x1 = 0.0343 | 984.1
298.35 K, 11280 kPa, x1 = 0.0343 | 987.9
298.35 K, 21300 kPa, x1 = 0.0343 | 991.9
298.35 K, 31040 kPa, x1 = 0.0343 | 995.7
298.35 K, 39150 kPa, x1 = 0.0343 | 998.6
323.15 K, 2570 kPa, x1 = 0.0163 | 980.6
323.15 K, 2610 kPa, x1 = 0.073 | 959.3
323.15 K, 2730 kPa, x1 = 0.0946 | 951.3
323.15 K, 10940 kPa, x1 = 0.073 | 962.8
323.15 K, 11140 kPa, x1 = 0.0946 | 954.9
323.15 K, 11390 kPa, x1 = 0.0163 | 984.4
323.15 K, 20710 kPa, x1 = 0.0946 | 958.8
323.15 K, 20790 kPa, x1 = 0.073 | 966.7
323.15 K, 21080 kPa, x1 = 0.0163 | 988.4
323.15 K, 30360 kPa, x1 = 0.073 | 970.6
323.15 K, 30890 kPa, x1 = 0.0163 | 992.3
323.15 K, 32400 kPa, x1 = 0.0946 | 963.3
323.15 K, 38480 kPa, x1 = 0.0163 | 995.2
323.15 K, 38600 kPa, x1 = 0.073 | 973.6
323.15 K, 39810 kPa, x1 = 0.0946 | 966.2
323.65 K, 2610 kPa, x1 = 0.0343 | 973.6
323.65 K, 11320 kPa, x1 = 0.0343 | 977.4
323.65 K, 21200 kPa, x1 = 0.0343 | 981.4
323.65 K, 30930 kPa, x1 = 0.0343 | 985.2
323.65 K, 39010 kPa, x1 = 0.0343 | 988.2
348.15 K, 2730 kPa, x1 = 0.0946 | 933.7
348.15 K, 3220 kPa, x1 = 0.0163 | 967.1
348.15 K, 3260 kPa, x1 = 0.0343 | 959.9
348.15 K, 3330 kPa, x1 = 0.073 | 943
348.15 K, 10980 kPa, x1 = 0.0163 | 970.6
348.15 K, 11060 kPa, x1 = 0.073 | 946.6
348.15 K, 11390 kPa, x1 = 0.0946 | 937.4
348.15 K, 11590 kPa, x1 = 0.0343 | 963.5
348.15 K, 20750 kPa, x1 = 0.0163 | 974.7
348.15 K, 20870 kPa, x1 = 0.073 | 950.8
348.15 K, 20870 kPa, x1 = 0.0946 | 941.6
348.15 K, 21160 kPa, x1 = 0.0343 | 967.5
348.15 K, 29500 kPa, x1 = 0.0163 | 978.3
348.15 K, 29730 kPa, x1 = 0.0946 | 945.4
348.15 K, 30400 kPa, x1 = 0.073 | 955
348.15 K, 30850 kPa, x1 = 0.0343 | 971.3
348.15 K, 37790 kPa, x1 = 0.0946 | 948.7
348.15 K, 39600 kPa, x1 = 0.073 | 958.9
348.15 K, 39860 kPa, x1 = 0.0343 | 974.7
348.15 K, 39910 kPa, x1 = 0.0163 | 982.3
373.15 K, 3330 kPa, x1 = 0.0946 | 908.6
373.15 K, 3370 kPa, x1 = 0.0163 | 950.2
373.15 K, 3390 kPa, x1 = 0.0343 | 942.1
373.15 K, 3510 kPa, x1 = 0.073 | 923.9
373.15 K, 11320 kPa, x1 = 0.0163 | 953.8
373.15 K, 11320 kPa, x1 = 0.073 | 927.7
373.15 K, 11390 kPa, x1 = 0.0946 | 912.8
373.15 K, 11470 kPa, x1 = 0.0343 | 945.9
373.15 K, 21080 kPa, x1 = 0.073 | 932.5
373.15 K, 21120 kPa, x1 = 0.0343 | 950.3
373.15 K, 21160 kPa, x1 = 0.0163 | 958.3
373.15 K, 21200 kPa, x1 = 0.0946 | 917.7
373.15 K, 30520 kPa, x1 = 0.0343 | 954.5
373.15 K, 30600 kPa, x1 = 0.0163 | 962.5
373.15 K, 30670 kPa, x1 = 0.073 | 937
373.15 K, 30850 kPa, x1 = 0.0946 | 922.3
373.15 K, 35700 kPa, x1 = 0.0163 | 964.6
373.15 K, 37230 kPa, x1 = 0.073 | 939.9
373.15 K, 39000 kPa, x1 = 0.0343 | 957.9
373.15 K, 39410 kPa, x1 = 0.0946 | 927.3
398.15 K, 3510 kPa, x1 = 0.0946 | 885.8
398.15 K, 3550 kPa, x1 = 0.0343 | 921.6
398.15 K, 3710 kPa, x1 = 0.0163 | 930.3
398.15 K, 3710 kPa, x1 = 0.073 | 901.9
398.15 K, 11430 kPa, x1 = 0.0946 | 890.4
398.15 K, 11510 kPa, x1 = 0.073 | 906.2
398.15 K, 11630 kPa, x1 = 0.0163 | 934.4
398.15 K, 11730 kPa, x1 = 0.0343 | 925.8
398.15 K, 21160 kPa, x1 = 0.073 | 911.4
398.15 K, 21200 kPa, x1 = 0.0946 | 896
398.15 K, 21360 kPa, x1 = 0.0163 | 939.3
398.15 K, 21530 kPa, x1 = 0.0343 | 930.7
398.15 K, 30790 kPa, x1 = 0.0163 | 943.7
398.15 K, 30790 kPa, x1 = 0.073 | 916.3
398.15 K, 30850 kPa, x1 = 0.0946 | 901.1
398.15 K, 30930 kPa, x1 = 0.0343 | 935.2
398.15 K, 37300 kPa, x1 = 0.0343 | 938.3
398.15 K, 39500 kPa, x1 = 0.073 | 920.7
398.15 K, 39610 kPa, x1 = 0.0946 | 905.3
398.15 K, 39890 kPa, x1 = 0.0163 | 948
423.15 K, 2680 kPa, x1 = 0.0163 | 906.7
423.15 K, 2680 kPa, x1 = 0.0343 | 897.3
423.15 K, 2750 kPa, x1 = 0.0946 | 860.1
423.15 K, 2760 kPa, x1 = 0.073 | 875.9
423.15 K, 10050 kPa, x1 = 0.0946 | 863.9
423.15 K, 10170 kPa, x1 = 0.0163 | 911
423.15 K, 10240 kPa, x1 = 0.0343 | 901.8
423.15 K, 10710 kPa, x1 = 0.073 | 881.1
423.15 K, 20110 kPa, x1 = 0.073 | 887.1
423.15 K, 20200 kPa, x1 = 0.0946 | 869.5
423.15 K, 20970 kPa, x1 = 0.0163 | 917
423.15 K, 21070 kPa, x1 = 0.0343 | 908.1
423.15 K, 30100 kPa, x1 = 0.0946 | 875.5
423.15 K, 30490 kPa, x1 = 0.073 | 893
423.15 K, 30570 kPa, x1 = 0.0163 | 922.4
423.15 K, 30640 kPa, x1 = 0.0343 | 913.4
423.15 K, 39560 kPa, x1 = 0.0163 | 927.2
423.15 K, 39680 kPa, x1 = 0.0343 | 918.2
423.15 K, 39860 kPa, x1 = 0.0946 | 882.2
423.15 K, 40110 kPa, x1 = 0.073 | 898.6
448.15 K, 3860 kPa, x1 = 0.0946 | 831.7
448.15 K, 3960 kPa, x1 = 0.0163 | 882.3
448.15 K, 4000 kPa, x1 = 0.073 | 849.3
448.15 K, 4080 kPa, x1 = 0.0343 | 872.1
448.15 K, 11550 kPa, x1 = 0.0946 | 837.9
448.15 K, 11920 kPa, x1 = 0.0163 | 887.5
448.15 K, 11960 kPa, x1 = 0.0343 | 877.7
448.15 K, 12160 kPa, x1 = 0.073 | 855.6
448.15 K, 21530 kPa, x1 = 0.0163 | 893.7
448.15 K, 21690 kPa, x1 = 0.073 | 862.7
448.15 K, 21690 kPa, x1 = 0.0946 | 845.8
448.15 K, 22180 kPa, x1 = 0.0343 | 884.2
448.15 K, 30990 kPa, x1 = 0.0946 | 852.6
448.15 K, 31010 kPa, x1 = 0.0343 | 889.8
448.15 K, 31050 kPa, x1 = 0.0163 | 899.4
448.15 K, 31170 kPa, x1 = 0.073 | 869.2
448.15 K, 37210 kPa, x1 = 0.073 | 873
448.15 K, 38340 kPa, x1 = 0.0163 | 903.5
448.15 K, 40060 kPa, x1 = 0.0343 | 894.8
448.15 K, 40140 kPa, x1 = 0.0946 | 858.6

Reference: the NIST ThermoML archive (doi:10.1016/j.fluid.2014.05.032)
